Results reported in patent publication US11376234B2, “Ammonia metabolism promoter” (Kao Corporation, priority 2018, dated 2022).
Marks after values point to notes of the source that are not given here.

Tests used:
[1] = test system: primary cultured hepatocytes; assay: Urea production of hepatocytes with citrulline and arginine (Reference Example); assay type: cell-based; details: 5 mM ammonium chloride, 24 hours; Arg+Cit 0.5 mM each, Cit 1 mM; vs control
Method: Cells were recovered from the liver of each mouse and dead cells were removed, in the same procedure as in Example 1. Thereafter, cells were suspended in a DMEM medium, seeded at 10^5 cells/well in a 24-well plate, and cultured.
The cells 24 hours after seeding were washed twice with PBS. Thereafter, the medium was replaced with an FBS, arginine, leucine free DMEM medium (D9443, Sigma), and 5 mM of ammonium chloride (control), ammonium chloride+0.5 mM of L-arginine+0.5 mM of L-citrulline (Arg+Cit), or ammonium chloride+1 mM of L-citrulline (Cit) was added thereto. The culture supernatant was collected 24 hours later, and the urea contained therein was quantitatively determined with QuantiChrom Urea Assay Kit (BioAssay Systems).

primary hepatocytes = assay: Amount of change in ammonia in culture medium of primary hepatocytes (Example 2); assay type: cell-based, mouse; details: for Ammonia change amount in culture medium, Increasing rate relative to control (%): 5 mM ammonium chloride, 24 hours, control = 100; for amount of change in ammonia in the culture medium relative to the control (in words): Dunnett's test, n=4
Method: For cells, a hepatocyte culture kit (derived from a 10-week-old male Balb/c mouse, 24 wells, 1×10^5 cells/well, Cosmo Bio) was used. A final concentration of 5 mM of ammonium chloride (015-02991, Wako) and 1.4 μM or 4.2 μM of the following catechins (EGC, Cg or ECg) were added to a medium containing high glucose DMEM (31053028, Gibco) containing GlutaMAX (35050-061, Gibco), penicillin/streptomycin (168-23191, Wako) and ascorbic acid (014-04801, Wako), and the cells were cultured therein: EGC (NH020203, Nagara Science Co., Ltd.); Cg (NH 021302, Nagara Science Co., Ltd.); and ECg (NH 020302, Nagara Science Co., Ltd.). Cells cultured in a medium without any added catechins were used as a control. The culture supernatant was collected 24 hours later, and the ammonia contained therein was quantitatively determined using an ammonia assay kit (Abcam). The decrement in the ammonia amount in the culture medium 24 hour after addition of ammonium chloride and catechins relative to the ammonia amount at the time of addition was defined as an amount of change in ammonia in the culture medium.
Each value in Table 1 represents the increasing rate of the amount of change in ammonia relative to that of the control. The statistical processing was performed by using multigroup comparison by Dunnett's test for n=4 per group (**: p <0.001, *: p<0.05).

Row | Compound | amount of urea production by hepatocytes [1] | Ammonia change amount in culture medium, Increasing rate relative to control (%) (primary hepatocytes; 4.2 μM) | amount of change in ammonia in the culture medium relative to the control (in words) (primary hepatocytes; 4.2 μM) | Ammonia change amount in culture medium, Increasing rate relative to control (%) (primary hepatocytes; 1.4 μM)
1 | NC(=O)NCCC[C@H](N)C(=O)O [Cit, L-citrulline] | significantly increased | – | – | –
2 | catechin gallate [Cg] | – | 174* % | significantly increases | –
3 | Oc1cc(O)c2c(c1)O[C@H](c1cc(O)c(O)c(O)c1)[C@H](O)C2 [EGC, epigallocatechin] | – | 186** % | significantly increases | 122%
4 | O=C(O[C@@H]1Cc2c(O)cc(O)cc2O[C@@H]1c1ccc(O)c(O)c1)c1cc(O)c(O)c(O)c1 [ECg, epicatechin gallate] | – | 126% | – | –
